According to PMC11133627, “CATH-2-derived antimicrobial peptide inhibits multidrug-resistant Escherichia coli infection in chickens” (Frontiers in Cellular and Infection Microbiology, 2024):
Ends that are not written are not given here.

Experiments:
[1] = system: E. coli clinical isolate E1; experiment: microbe, parasite or virus in culture
Description: (§1) The minimum inhibitory concentrations (MICs) of the AMPs were determined using the microbroth dilution technique ([van Harten et al., 2021]). One hundred microliters of bacterial suspension at a concentration of 1×10^6 CFU/mL was pipetted into a 96-well plate. Then, 100 μL of AMP or gentamicin at various concentrations was added, while the bacterial suspension without AMPs and blank medium were used as controls.

[2] = system: E. coli strains (ATCC 8739 and MDR clinical isolates); format: cell-based, Escherichia coli; details: ATCC 8739, 18 h
Description: as §1

[3] = system: E. coli clinical isolate E9; experiment: microbe, parasite or virus in culture; format: cell-based, Escherichia coli; details: for MIC against E. coli E9: clinical isolate E9, 18 h; for MBC against E. coli E9: clinical isolate E9, 24 h
Description: as §1

[4] = system: E. coli clinical isolate E12; experiment: microbe, parasite or virus in culture; format: cell-based, Escherichia coli; details: for MIC against E. coli E12: clinical isolate E12, 18 h; for MBC against E. coli E12: clinical isolate E12, 24 h
Description: as §1

[5] = system: E. coli clinical isolate E16; experiment: microbe, parasite or virus in culture; format: cell-based, Escherichia coli; details: for MIC against E. coli E16: clinical isolate E16, 18 h; for MBC against E. coli E16: clinical isolate E16, 24 h
Description: as §1

[6] = system: E. coli clinical isolate E14; experiment: microbe, parasite or virus in culture; format: cell-based, Escherichia coli; details: for MIC against E. coli E14: clinical isolate E14, 18 h; for MBC against E. coli E14: clinical isolate E14, 24 h
Description: as §1

[7] = system: E. coli clinical isolate E18; experiment: microbe, parasite or virus in culture; format: cell-based, Escherichia coli; details: for MIC against E. coli E18: clinical isolate E18, 18 h; for MBC against E. coli E18: clinical isolate E18, 24 h
Description: as §1

[8] = system: E. coli (ATCC 8739); experiment: microbe, parasite or virus in culture; format: cell-based, Escherichia coli; details: for MIC against E. coli ATCC 8739: ATCC 8739, 18 h; for MBC against E. coli ATCC 8739: ATCC 8739, 24 h
Description: as §1

[9] = system: E. coli (ATCC 8739); format: cell-based, Escherichia coli; details: ATCC 8739, 1 h
Description: The MICs of the AMPs against E. coli (ATCC 8739) at different temperatures and physiological salt concentrations were evaluated. The thermal stability of the AMPs was assessed by incubating them at a concentration of 500 μg/mL for 1h at 0, 37, and 100°C, using untreated AMPs as a control. The salt ion stability of the AMPs was determined by incubating them at a concentration of 500 μg/mL in solutions of NaCl (150 mM), KCl (4.5 mM), MgCl2 (1 mM), and CaCl2 (2.5 mM) for 1h, using untreated samples as controls. The changes in the MICs of the AMPs were assessed following these experimental procedures.

[10] = system: E. coli clinical isolate E12; experiment: Drug-sensitivity test (paper disc, inhibition zone); format: cell-based, Escherichia coli; parameters: key to Drug sensitivity of E. coli E12: R: resistant strains; I: intermediate strains; S: sensitive strains; details: 6 mm antibiotic paper on LB agar, 1×10^6 CFU/mL, 24h 37°C, inhibition zone diameter
Description: (§2) E. coli (ATCC 8739) and clinical isolates of E. coli (E1, E9, E12, E14, E16, and E18) were stored at the Animal Biochemical Laboratory of Shanxi Agricultural University and grown in Luria-Bertani (LB) broth as previously reported ([Zhao et al., 2021]). Circular 6 mm paper pieces were prepared with filter paper and autoclaved for sterilization. […] Then, 0.5 mL of antibiotic solution was added to 100 sterilized papers. Subsequently, the paper pieces were fully infiltrated and dried in a vacuum drying oven to produce antibiotic susceptibility papers. The E. coli strain was retrieved from the -20°C freezer and activated by incubating it on LB agar media at 37°C for 24h. Individual colonies were selected and transferred to LB liquid media. Thereafter, the E. coli suspension was obtained by shaking at 37°C and 160 r/min for 18h. The obtained suspension was centrifuged at 5000 r/min for 5min, after which the supernatant was discarded, and the bacteria were resuspended in fresh medium to a concentration of 1×10^6 CFU/mL. Two hundred microliters of the bacterial suspension mentioned above was spread evenly onto LB agar medium. Then, the antibiotic susceptibility papers were placed on the medium surface using sterile tweezers. After 24h of incubation at 37°C, the diameter of the inhibition zone was measured to determine the susceptibility of E. coli to antibiotics.

[11] = system: E. coli (E16); experiment: Chicken infection with MDR E. coli; format: in vivo
Description: Except for the blank control group injected with 500 μL of normal saline, the other four groups were injected with 500 μL of 3×10^9 CFU/mL E. coli (E16) into the pectoral muscles. […] Clinical symptoms and were observed and documented for the chickens in each group after infection. After 72h, the chickens in each group were euthanized and examined for internal organ damage. Paraffin sections were prepared for microscopic examination of pathological changes. Under sterile conditions, 1 g samples of heart, liver, and spleen were collected, and each sample was supplemented with 20 mL of sterile PBS. After thorough grinding, the sample was diluted to the appropriate multiple, and 100 μL of the diluent was spread onto LB agar medium. The plates were incubated for 24h, after which the colonies were counted.

[12] = system: E. coli clinical isolate E1; format: cell-based; parameters: key: R: resistant strains; I: intermediate strains; S: sensitive strains; details: 6 mm antibiotic paper on LB agar, 1×10^6 CFU/mL, 24h 37°C, inhibition zone diameter
Description: as §2

[13] = system: E. coli clinical isolate E14; experiment: Drug-sensitivity test (paper disc, inhibition zone); format: cell-based, Escherichia coli; parameters: key to Drug sensitivity of E. coli E14: R: resistant strains; I: intermediate strains; S: sensitive strains; details: 6 mm antibiotic paper on LB agar, 1×10^6 CFU/mL, 24h 37°C, inhibition zone diameter
Description: as §2

[14] = system: E. coli clinical isolate E9; experiment: as above; format: cell-based, Escherichia coli; parameters: key: R: resistant strains; I: intermediate strains; S: sensitive strains; details: 6 mm antibiotic paper on LB agar, 1×10^6 CFU/mL, 24h 37°C, inhibition zone diameter
Description: as §2

[15] = system: E. coli clinical isolate E18; experiment: as above; format: cell-based, Escherichia coli; parameters: key: R: resistant strains; I: intermediate strains; S: sensitive strains; details: 6 mm antibiotic paper on LB agar, 1×10^6 CFU/mL, 24h 37°C, inhibition zone diameter
Description: as §2

[16] = system: E. coli (ATCC 8739); experiment: as above; format: cell-based, Escherichia coli; parameters: key: R: resistant strains; I: intermediate strains; S: sensitive strains; details: 6 mm antibiotic paper on LB agar, 1×10^6 CFU/mL, 24h 37°C, inhibition zone diameter
Description: as §2

[17] = system: E. coli clinical isolate E16; experiment: as above; format: cell-based, Escherichia coli; parameters: key to Drug sensitivity of E. coli E16: R: resistant strains; I: intermediate strains; S: sensitive strains; details: 6 mm antibiotic paper on LB agar, 1×10^6 CFU/mL, 24h 37°C, inhibition zone diameter
Description: as §2

| Molecule | MIC against E. coli E9 [3] | MBC against E. coli E9 [3] | MIC against E. coli E12 [4] | MBC against E. coli E12 [4] | MIC against E. coli E16 [5] | MBC against E. coli E16 [5] | MIC against E. coli E14 [6] | MBC against E. coli E14 [6] | MIC against E. coli E18 [7] | MBC against E. coli E18 [7] | MIC against E. coli ATCC 8739 [8] | MBC against E. coli ATCC 8739 [8] | MIC against E. coli (ATCC 8739), Salt Stability CaCl2 (2.5 mM) [9] | MIC against E. coli (ATCC 8739), Salt Stability KCl (4.5 mM) [9] | MIC against E. coli (ATCC 8739), Salt Stability MgCl2 (1 mM) [9] | MIC against E. coli (ATCC 8739), Salt Stability NaCl (150 mM) [9] | MIC against E. coli (ATCC 8739), Thermal Stability 0°C [9] | MIC against E. coli (ATCC 8739), Thermal Stability 37°C [9] | MIC against E. coli (ATCC 8739), Thermal Stability 100°C [9] | MIC against E. coli E1 ([1]; clinical isolate E1, 18 h) | further results |
| --- | --- | --- | --- | --- | --- | --- | --- | --- | --- | --- | --- | --- | --- | --- | --- | --- | --- | --- | --- | --- | --- |
| RFGRFLRKIRRFIPK [C2-1] | 0.5 µg/mL | 1 µg/mL | 1 µg/mL | 1 µg/mL | 16 µg/mL | 64 µg/mL | 16 µg/mL | 16 µg/mL | 2 µg/mL | 4 µg/mL | 2 µg/mL | 4 µg/mL | 8 µg/mL | 2 µg/mL | 2 µg/mL | 0.5 µg/mL | 2 µg/mL | 2 µg/mL | 2 µg/mL | – | MBC against E. coli E1 ([1]; 50 μL from fully inhibited wells plated on LB agar, colonies counted after 24h 37°C): 16 µg/mL; MIC against E. coli E1 ([1]; microbroth dilution, 1×10^6 CFU/mL, 37°C 18h, turbidity): 16 µg/mL; MIC range over E. coli strains [2]: 0.5 to 16 µg/mL |
| RFGRFLRKIRRFRPK [CATH-2 (1-15), reference compound] | 4 µg/mL | 4 µg/mL | 8 µg/mL | 8 µg/mL | 32 µg/mL | 64 µg/mL | 64 µg/mL | – | 64 µg/mL | 64 µg/mL | 64 µg/mL | 64 µg/mL | 64 µg/mL | 16 µg/mL | 16 µg/mL | 32 µg/mL | 64 µg/mL | 64 µg/mL | 32 µg/mL | – | – |
| CCN1CCN(c2cc3c(cc2F)c(=O)c(C(=O)O)cn3C2CC2)CC1 [enrofloxacin] | – | – | – | – | – | – | – | – | – | – | – | – | – | – | – | – | – | – | – | – | Drug sensitivity of E. coli E12 [10]: R; 3-day mortality rate ([11]; 200 μg/mL, 500 μL into pectoral muscle 4h after 1.5×10^9 CFU E16): 50%; Survival rate compared with untreated group (in words) ([11]; 3 days): no difference in survival rate; Bacterial loads in the heart, liver and spleen (in words) ([11]; after 3 days of infection, vs infected untreated): affected only the heart bacterial load; Drug sensitivity of E. coli E1 [12]: R; Drug sensitivity of E. coli E14 [13]: R; Drug sensitivity of E. coli E9 [14]: R; Drug sensitivity of E. coli E18 [15]: R; Drug sensitivity of E. coli ATCC 8739 [16]: S; Drug sensitivity of E. coli E16 [17]: R |
| RFGRFLRKIRFFRLK [C2-5] | 64 µg/mL | 128 µg/mL | 8 µg/mL | 8 µg/mL | 16 µg/mL | 16 µg/mL | 8 µg/mL | 8 µg/mL | 16 µg/mL | 32 µg/mL | 1 µg/mL | 1 µg/mL | 8 µg/mL | 4 µg/mL | 4 µg/mL | 4 µg/mL | 1 µg/mL | 1 µg/mL | 4 µg/mL | 8 µg/mL | MBC against E. coli E1 ([1]; clinical isolate E1, 24 h): 8 µg/mL |
| RFGRNLRKIRRFWPK [C2-4] | 64 µg/mL | 128 µg/mL | 16 µg/mL | 32 µg/mL | 64 µg/mL | 64 µg/mL | 32 µg/mL | 64 µg/mL | 128 µg/mL | 128 µg/mL | 16 µg/mL | 16 µg/mL | 32 µg/mL | 32 µg/mL | 16 µg/mL | 32 µg/mL | 16 µg/mL | 16 µg/mL | 16 µg/mL | 128 µg/mL | MBC against E. coli E1 ([1]; clinical isolate E1, 24 h): 128 µg/mL |
| RFGRHLRKIIRFRIK [C2-3] | 2 µg/mL | 4 µg/mL | 1 µg/mL | 1 µg/mL | 16 µg/mL | 64 µg/mL | 8 µg/mL | 8 µg/mL | 16 µg/mL | 32 µg/mL | 16 µg/mL | 16 µg/mL | 8 µg/mL | 4 µg/mL | 4 µg/mL | 16 µg/mL | 16 µg/mL | 16 µg/mL | 8 µg/mL | 32 µg/mL | MBC against E. coli E1 ([1]; clinical isolate E1, 24 h): 64 µg/mL |
